Consider four compounds from patent publication US7176205B2, “Bi-pyridinyl derivatives as NK-1 antagonists” (Hoffmann-La Roche Inc., priority 2005, dated 2007).

Structures are written as SMILES. Converted amounts (≈) assume the structure as drawn.

The nature of one series: Equilibrium solubility. The conditions noted are these: citrate buffer, aqueous buffer, thermodynamic from solid; pH 4.2, 0.15 M Citrat-buffer, 21° C. The series is classed as physicochemical. On the procedure:
Method Description Equilibrium Solubility
Equilibrium solubility values were determined at pH 4.2 (0.15 M Citrat-buffer). A known amount of drug, generally 1–2 mg, was added to 250 μl of buffer (glass tubes) and the resulting suspension was stirred for 2 h (21° C.), after 5 minutes of sonification. The pH of the solution was checked and corrected if necessary (in case of pH correction, the solution was once more shaken and equilibrated) and after 24 h the suspension was filtered through a 0.65-μm filter. The filtered solution was then assayed by HPLC to determine the drug concentration. In cases where the drug had completely dissolved in the buffer, the value for equilibrium solubility was assumed to be higher than the value determined by HPLC and was reported as such. Stock solutions (˜1 mg/ml) in DMSO were used in the preparation of a calibration curve in the related buffer using HPLC analytics.

Another series addresses T1, human NK-1 receptor (Homo sapiens, UniProt P25103).
T1 construct: expressed in transfected cells; host or cells: CHO cells infected using the Semliki virus expression system; membrane suspension
Put plainly: NK-1 receptor binding, [3H]substance P displacement. The conditions noted are these: human NK-1 receptors in CHO cells, [3H]substance P 0.6 nM; read-out: pKi(NK-1) (converted). On the procedure: The affinity of test compounds for the NK-1 receptor was evaluated at human NK-1 receptors in CHO cells infected with the human NK-1 receptor (using the Semliki virus expression system) and radiolabelled with [^3H]substance P (final concentration 0.6 nM). Binding assays were performed in HEPES buffer (50 mM, pH 7.4) containing BSA (0.04%) leupeptin (8 μg/ml), MnCl2 (3 mM) and phosphoramidon (2 μM). Binding assays consisted of 250 μl of membrane suspension (1.25×10^5 cells/assay tube), […] of buffer of displacing agent and 125 μl of [^3H]substance P. Displacement curves were determined with at least seven concentrations of the compound. The assay tubes were incubated for 60 min at room temperature after which time the tube contents were rapidly filtered under vacuum through GF/C filters presoaked for 60 min with PEI (0.3%) with 2×2 ml washes of HEPES buffer (50 mM, pH 7.4). The radioactivity retained on the filters was measured by scintillation counting. All assays were performed in triplicate in at least 2 separate experiments.

T1 sequence (P25103 whole entry): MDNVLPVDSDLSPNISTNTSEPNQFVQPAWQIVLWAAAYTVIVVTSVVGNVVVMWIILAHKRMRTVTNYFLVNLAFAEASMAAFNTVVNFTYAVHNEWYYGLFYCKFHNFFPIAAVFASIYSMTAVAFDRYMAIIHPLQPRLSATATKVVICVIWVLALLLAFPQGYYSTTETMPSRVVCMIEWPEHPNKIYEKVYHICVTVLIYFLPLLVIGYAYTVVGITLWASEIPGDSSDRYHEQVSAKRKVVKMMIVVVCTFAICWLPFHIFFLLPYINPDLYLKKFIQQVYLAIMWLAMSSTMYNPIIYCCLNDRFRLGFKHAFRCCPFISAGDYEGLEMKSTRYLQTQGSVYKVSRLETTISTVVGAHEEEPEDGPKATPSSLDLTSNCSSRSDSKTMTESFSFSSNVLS

With `Cc1ccccc1-c1cc(N2CCN(C)CC2)ncc1C(=O)N(C)Cc1cc(C(F)(F)F)cc(C(F)(F)F)c1` [EP 1 035 115A1example 12, reference compound], in “Equilibrium solubility”, the concentration in solution (solubility at 24 h) came to 495 µg/mL (≈ 0.899 mM).

As for `Cc1ccccc1-c1cc(N2CCN(C)CC2)ncc1N(C)C(=O)C(C)(C)c1cc(C(F)(F)F)cc(C(F)(F)F)c1` [EP 1 035 115A1example 14, reference compound], the concentration in solution in the series “Equilibrium solubility” (solubility at 24 h) came to 26 µg/mL (≈ 0.0449 mM). For the same compound, the Ki on human NK-1 receptor is 0.977 nM. `Cc1ncccc1-c1cc(N2CCN(C)CC2)ncc1C(=O)N(C)Cc1cc(C(F)(F)F)cc(C(F)(F)F)c1` [Example 1, 2-Methyl-6′-(4-methyl-piperazin-1-yl)-[3,4′]bipyridinyl-3′-carboxylic acid (3,5-bis-trifluoromethyl-benzyl)-methyl-amide]: in the series “Equilibrium solubility”, the concentration in solution (solubility at 24 h) came to 13700 µg/mL (≈ 24.8 mM). In addition, the Ki at human NK-1 receptor was 2.75 nM. Taken in the same sequence, the figures for `Cc1ncccc1-c1cc(N2CCN(C)CC2)ncc1N(C)C(=O)C(C)(C)c1cc(C(F)(F)F)cc(C(F)(F)F)c1` [Example 2, 2-(3,5-Bis-trifluoromethyl-phenyl)-N-methyl-N-[2-methyl-6′-(4-methyl-piperazin-1-yl)-[3,4′]bipyridinyl-3′-yl]-isobutyramide] were 7500 µg/mL (≈ 12.9 mM) and 1.1 nM.
